system: STING pathway; assay: STING reporter assay: luciferase reporter activity in THP1-Dual KO-IFNAR2 cells activated with 2'3'cGAMP; type: cell-based; conditions: Homo sapiens, 2'3'cGAMP 15 μM, 24 h, read-out: hSTING EC50
Method: STING pathway activation by the compounds described herein was measured using THP1-Dual™ cells (KO-IFNAR2).
THP1-Dual™ KO-IFNAR2 Cells (obtained from invivogen) were maintained in RPMI, 10% FCS, 5 ml P/S, 2 mM L-glut, 10 mM Hepes, and 1 mM sodium pyruvate. Compounds were spotted in empty 384 well tissue culture plates (Greiner 781182) by Echo for a final concentration of 0.0017-100 μM. Cells were plated into the TC plates at 40 μL per well, 2×10E6 cells/mL. For activation with STING ligand, 2′3′cGAMP (MW 718.38, obtained from Invivogen), was prepared in Optimem media.
The following solutions were prepared for each 1×384 plate: • Solution A: 2 mL Optimem with one of the following stimuli: • 60 μL of 10 mM 2′3′cGAMP→150 μM stock • Solution B: 2 mL Optimem with 60 μL Lipofectamine 2000→Incubate 5 min at RT
2 mL of solution A and 2 ml Solution B was mixed and incubated for 20 min at room temperature (RT). 20 μL of transfection solution (A+B) was added on top of the plated cells, with a final 2′3′cGAMP concentration of 15 μM. The plates were then centrifuged immediately at 340 g for 1 minute, after which they were incubated at 37° C., 5% CO2,>98% humidity for 24 h. Luciferase reporter activity was then measured. EC50 values were calculated by using standard methods known in the art.
Luciferase reporter assay: 10 μL of supernatant from the assay was transferred to white 384-plate with flat bottom and squared wells. One pouch of QUANTI-Luc™ Plus was dissolved in 25 mL of water. 100 μL of QLC Stabilizer per 25 mL of QUANTI-Luc™ Plus solution was added. 50 μL of QUANTI-Luc™ Plus/QLC solution per well was then added. Luminescence was measured on a Platereader (e.g., Spectramax I3X (Molecular Devices GF3637001)).
Luciferase reporter activity was then measured. EC50 values were calculated by using standard methods known in the art.

| Structure (SMILES) | EC50 [nM] |
| --- | --- |
| O=C(Nc1c[nH]c2cc(F)c(F)cc12)c1cccc(NCCCC(F)(F)F)c1 [Compound 169, N-(5,6-difluoro-1H-indol-3-yl)-3-((4,4,4-trifluorobutyl)amino)benzamide] | 200 to 1000 |
| O=C(Nc1c[nH]c2cc(F)c(F)cc12)c1ccc(Cl)c(OCCCC(F)(F)F)c1 [Compound 170, 4-chloro-N-(5,6-difluoro-1H-indol-3-yl)-3-(4,4,4-trifluorobutoxy)benzamide] | 200 to 1000 |
| O=C(Nc1c[nH]c2cc(F)c(F)cc12)c1cccc(OCCCC(F)(F)F)c1 [Compound 171, N-(5,6-difluoro-1H-indol-3-yl)-3-(4,4,4-trifluorobutoxy)benzamide] | 200 to 1000 |
| Cc1ccc(C(=O)Nc2c[nH]c3cc(F)c(F)cc23)cc1OCCCC(F)(F)F [Compound 172, N-(5,6-difluoro-1H-indol-3-yl)-4-methyl-3-(4,4,4-trifluorobutoxy)benzamide] | 200 to 1000 |
| Cc1nc(C(=O)Nc2c[nH]c3cc(F)c(F)cc23)cnc1OCC(F)(F)F [Compound 173, N-(5,6-difluoro-1H-indol-3-yl)-6-methyl-5-(2,2,2-trifluoroethoxy)pyrazine-2-carboxamide] | 1000 to 5000 |
| O=C(Nc1c[nH]c2cc(F)c(F)cc12)c1ccc(OCC(F)F)cc1 [Compound 174, N-(5,6-difluoro-1H-indol-3-yl)-4-(2,2-difluoroethoxy)benzamide] | 200 to 1000 |
| Cc1cc(C(=O)Nc2c[nH]c3cc(F)c(F)cc23)cc(N2CCC(F)(F)CC2)n1 [Compound 175, N-(5,6-difluoro-1H-indol-3-yl)-2-(4,4-difluoropiperidin-1-yl)-6-methylisonicotinamide] | 5000 to 100000 |
| O=C(Nc1c[nH]c2cc(F)c(F)cc12)c1ccc(CCC(F)(F)F)c(F)c1 [Compound 176, N-(5,6-difluoro-1H-indol-3-yl)-3-fluoro-4-(3,3,3-trifluoropropyl)benzamide] | 200 to 1000 |
| O=C(Nc1c[nH]c2cc(F)c(F)cc12)c1cccc(OC2CCCCC2)c1 [Compound 179, 3-(cyclohexyloxy)-N-(5,6-difluoro-1H-indol-3-yl)benzamide] | 200 to 1000 |
| CC(C)n1cc(-c2ccc3[nH]cc(NC(=O)c4ccc(OCCCC(F)(F)F)cc4)c3c2)cn1 [Compound 180, N-(5-(1-isopropyl-1H-pyrazol-4-yl)-1H-indol-3-yl)-4-(4,4,4-trifluorobutoxy)benzamide] | 200 to 1000 |
| O=C(Nc1c[nH]c2cc(F)c(F)cc12)c1ccc(CN2CC(F)(F)C2)c(F)c1 [Compound 181, N-(5,6-difluoro-1H-indol-3-yl)-4-((3,3-difluoroazetidin-1-yl)methyl)-3-fluorobenzamide] | 200 to 1000 |
| O=C(Nc1c[nH]c2cc(F)c(F)cc12)c1cnc(N2CCC(OC(F)(F)F)CC2)cn1 [Compound 182, N-(5,6-difluoro-1H-indol-3-yl)-5-(4-(trifluoromethoxy)piperidin-1-yl)pyrazine-2-carboxamide] | 40 to 200 |
| COC1(C)CN(c2ncc(C(=O)Nc3c[nH]c4cc(F)c(F)cc34)cc2C)C1 [Compound 183, N-(5,6-difluoro-1H-indol-3-yl)-6-(3-methoxy-3-methylazetidin-1-yl)-5-methylnicotinamide] | 1000 to 5000 |
| COCCO[C@@H]1CCN(c2ncc(C(=O)Nc3c[nH]c4cc(F)c(F)cc34)cc2C)C1 [Compound 184, (R)-N-(5,6-difluoro-1H-indol-3-yl)-6-(3-(2-methoxyethoxy)pyrrolidin-1-yl)-5-methylnicotinamide] | 1000 to 5000 |
| COCCO[C@@H]1CCN(c2ccc(C(=O)Nc3c[nH]c4cc(F)c(F)cc34)cc2F)C1 [Compound 185, (R)-N-(5,6-difluoro-1H-indol-3-yl)-3-fluoro-4-(3-(2-methoxyethoxy)pyrrolidin-1-yl)benzamide] | 200 to 1000 |
| Cc1cc(C(=O)Nc2c[nH]c3cc(F)c(F)cc23)cc(C2CCCCC2)n1 [Compound 186, 2-cyclohexyl-N-(5,6-difluoro-1H-indol-3-yl)-6-methylisonicotinamide] | 1000 to 5000 |
| O=C(Nc1c[nH]c2cc(F)c(F)cc12)c1ccc(C2(O)CCC(F)(F)CC2)cc1 [Compound 187, 4-(4,4-difluoro-1-hydroxycyclohexyl)-N-(5,6-difluoro-1H-indol-3-yl)benzamide] | 200 to 1000 |
| N#Cc1cc(C(=O)Nc2c[nH]c3cc(F)c(F)cc23)ccc1N1CCC(F)(F)CC1 [Compound 188, 3-cyano-N-(5,6-difluoro-1H-indol-3-yl)-4-(4,4-difluoropiperidin-1-yl)benzamide] | 200 to 1000 |

| Structure (SMILES) | EC50 [nM] |
| --- | --- |
| O=C(Nc1c[nH]c2cc(F)c(F)cc12)c1cnc(N2CCC(C(F)(F)F)C2)c(Cl)c1 (centres unmarked) [Compound 189, 5-chloro-N-(5,6-difluoro-1H-indol-3-yl)-6-(3-(trifluoromethyl)pyrrolidin-1-yl)nicotinamide] | 200 to 1000 |
| O=C(Nc1c[nH]c2cc(F)ccc12)c1cnc(N2CCC(F)(F)CC2)c(Cl)c1 [Compound 190, 5-chloro-6-(4,4-difluoropiperidin-1-yl)-N-(6-fluoro-1H-indol-3-yl)nicotinamide] | 200 to 1000 |
| Cc1cc(C(=O)Nc2c[nH]c3cc(F)c(F)cc23)cnc1NCCCC(F)(F)F [Compound 191, N-(5,6-difluoro-1H-indol-3-yl)-5-methyl-6-((4,4,4-trifluorobutyl)amino)nicotinamide] | 200 to 1000 |
| O=C(Nc1c[nH]c2cc(F)ccc12)c1ccc(OCCCC(F)(F)F)c(F)c1 [Compound 192, 3-fluoro-N-(6-fluoro-1H-indol-3-yl)-4-(4,4,4-trifluorobutoxy)benzamide] | 200 to 1000 |
| O=C(Nc1c[nH]c2cc(F)c(F)cc12)c1ccn(Cc2ccc(C(F)(F)F)cc2)c(=O)n1 [Compound 193, N-(5,6-difluoro-1H-indol-3-yl)-2-oxo-1-[[4-(trifluoromethyl)phenyl]methyl]pyrimidine-4-carboxamide] | 1000 to 5000 |
| COCCOc1cccc(C(=O)Nc2c[nH]c3cc(F)c(F)cc23)c1 [Compound 194, N-(5,6-difluoro-1H-indol-3-yl)-3-(2-methoxyethoxy)benzamide] | 200 to 1000 |
| O=C(Nc1c[nH]c2cc(F)c(F)cc12)c1ccc(OCC2CC2)c(Cl)c1 [Compound 195, 3-chloro-4-(cyclopropylmethoxy)-N-(5,6-difluoro-1H-indol-3-yl)benzamide] | 200 to 1000 |
| O=C(Nc1c[nH]c2cc(F)c(F)cc12)c1ccc(OC2CCCCC2)cc1 [Compound 196, 4-(cyclohexyloxy)-N-(5,6-difluoro-1H-indol-3-yl)benzamide] | 200 to 1000 |
| O=C(Nc1c[nH]c2cc(F)c(F)cc12)c1ccc(OC(F)(F)F)nc1 [Compound 197, N-(5,6-difluoro-1H-indol-3-yl)-6-(trifluoromethoxy)pyridine-3-carboxamide] | 200 to 1000 |
| CCOc1c(F)ccc(C(=O)Nc2c[nH]c3cc(F)c(F)cc23)c1F [Compound 198, N-(5,6-difluoro-1H-indol-3-yl)-3-ethoxy-2,4-difluorobenzamide] | 200 to 1000 |
| CCOc1cc(F)c(C(=O)Nc2c[nH]c3cc(F)c(F)cc23)c(F)c1 [Compound 199, N-(5,6-difluoro-1H-indol-3-yl)-4-ethoxy-2,6-difluorobenzamide] | 200 to 1000 |
| COCc1cccc(-n2cc(-c3ccc4[nH]cc(NC(=O)c5ccc(OCCCC(F)(F)F)cc5)c4c3)cn2)c1 [Compound 200, N-(5-(1-(3-(methoxymethyl)phenyl)-1H-pyrazol-4-yl)-1H-indol-3-yl)-4-(4,4,4-trifluorobutoxy)benzamide] | 200 to 1000 |
| O=C(Nc1c[nH]c2ccc(-c3cnn(-c4cccc(C5CC5)c4)c3)cc12)c1ccc(OCCCC(F)(F)F)cc1 [Compound 201, N-(5-(1-(3-cyclopropylphenyl)-1H-pyrazol-4-yl)-1H-indol-3-yl)-4-(4,4,4-trifluorobutoxy)benzamide] | 200 to 1000 |
| O=C(Nc1c[nH]c2cc(F)c(F)cc12)c1ccnc(NCCCC(F)(F)F)c1 [Compound 203, N-(5,6-difluoro-1H-indol-3-yl)-2-((4,4,4-trifluorobutyl)amino)isonicotinamide] | 200 to 1000 |
| CC(C)n1cc(-c2cc(F)c3[nH]cc(NC(=O)c4ccc(OCCCC(F)(F)F)cc4)c3c2)cn1 [Compound 204, N-(7-fluoro-5-(1-isopropyl-1H-pyrazol-4-yl)-1H-indol-3-yl)-4-(4,4,4-trifluorobutoxy)benzamide] | 200 to 1000 |
| Cc1cc(C(=O)Nc2c[nH]c3cc(F)c(F)cc23)cnc1N1CC2(CCOC2)C1 [Compound 207, N-(5,6-difluoro-1H-indol-3-yl)-5-methyl-6-(6-oxa-2-azaspiro[3.4]octan-2-yl)nicotinamide] | 1000 to 5000 |
| Cc1nc(C(=O)Nc2c[nH]c3cc(F)c(F)cc23)cnc1OC1CC(F)(F)C1 [Compound 208, N-(5,6-difluoro-1H-indol-3-yl)-5-(3,3-difluorocyclobutoxy)-6-methylpyrazine-2-carboxamide] | 200 to 1000 |

— patent US20230250106A1, “COMPOUNDS AND COMPOSITIONS FOR TREATING CONDITIONS ASSOCIATED WITH STING ACTIVITY” (IFM Due, Inc., priority 2020, published 2023)
